What is called IC50 is the concentration needed to halve the response being measured. A high value points to weaker potency.

Common to all, as to format: cell-based
The target of test [1] is T1, CaV2.2 (Homo sapiens, UniProt Q00975).
T1 construct: expressed in transfected cells; host or cells: HEK293
Kind of test: VIPR optical membrane potential assay with electrical stimulation, CaV2.2. Conditions: Table 9, CaV 2.2 receptors. Summed up:
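HEK293 cells stably expressing CaV2.2 stained with CC2-DMPE/DiSBAC2(3) voltage-sensitive dyes (10 μM final CC2-DMPE, 30 min, RT), then compound added and cells electrically stimulated for 3-5 s. Read-out: background-subtracted 460/580 nm emission ratio; response R=Rf/Ri (post- vs pre-stimulus ratio); antagonism seen as reduced response.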

Test [2] addresses NaV1.8 (Homo sapiens, UniProt Q9Y5Y9). The test can be described thus: VIPR optical membrane potential assay, NaV1.8 (other subtypes in an analogous mode). Conditions: Table 9, NaV 1.8 receptors. Summed up: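 Cells expressing the NaV subtype stained with coumarin and DiSBAC2(3) membrane-potential dyes, then incubated with test compound for 20-30 minutes. Depolarization evoked by sodium addback and read optically on VIPR; block measured as reduced membrane-potential response, with tetracaine as positive control.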

In test [3] the target is T2, NaV1.3 (Homo sapiens, UniProt Q9NY46).
T2 construct: expressed in transfected cells; host or cells: HEK293
The test can be described thus: VIPR optical membrane potential assay with electrical stimulation, NaV1.3. Conditions: Table 9, NaV 1.3 receptors. Summed up:
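HEK293 cells stably expressing NaV1.3, stained with CC2-DMPE (10 μM final) then DiSBAC2(3) with ABSC1, 30 min each at RT; compounds added with oxonol. Electrical stimulation for 3 s; 460/580 nm background-subtracted emission ratio Rf/Ri, normalised to tetracaine (positive) and untreated (negative) controls.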

T2 sequence (Q9NY46 whole entry): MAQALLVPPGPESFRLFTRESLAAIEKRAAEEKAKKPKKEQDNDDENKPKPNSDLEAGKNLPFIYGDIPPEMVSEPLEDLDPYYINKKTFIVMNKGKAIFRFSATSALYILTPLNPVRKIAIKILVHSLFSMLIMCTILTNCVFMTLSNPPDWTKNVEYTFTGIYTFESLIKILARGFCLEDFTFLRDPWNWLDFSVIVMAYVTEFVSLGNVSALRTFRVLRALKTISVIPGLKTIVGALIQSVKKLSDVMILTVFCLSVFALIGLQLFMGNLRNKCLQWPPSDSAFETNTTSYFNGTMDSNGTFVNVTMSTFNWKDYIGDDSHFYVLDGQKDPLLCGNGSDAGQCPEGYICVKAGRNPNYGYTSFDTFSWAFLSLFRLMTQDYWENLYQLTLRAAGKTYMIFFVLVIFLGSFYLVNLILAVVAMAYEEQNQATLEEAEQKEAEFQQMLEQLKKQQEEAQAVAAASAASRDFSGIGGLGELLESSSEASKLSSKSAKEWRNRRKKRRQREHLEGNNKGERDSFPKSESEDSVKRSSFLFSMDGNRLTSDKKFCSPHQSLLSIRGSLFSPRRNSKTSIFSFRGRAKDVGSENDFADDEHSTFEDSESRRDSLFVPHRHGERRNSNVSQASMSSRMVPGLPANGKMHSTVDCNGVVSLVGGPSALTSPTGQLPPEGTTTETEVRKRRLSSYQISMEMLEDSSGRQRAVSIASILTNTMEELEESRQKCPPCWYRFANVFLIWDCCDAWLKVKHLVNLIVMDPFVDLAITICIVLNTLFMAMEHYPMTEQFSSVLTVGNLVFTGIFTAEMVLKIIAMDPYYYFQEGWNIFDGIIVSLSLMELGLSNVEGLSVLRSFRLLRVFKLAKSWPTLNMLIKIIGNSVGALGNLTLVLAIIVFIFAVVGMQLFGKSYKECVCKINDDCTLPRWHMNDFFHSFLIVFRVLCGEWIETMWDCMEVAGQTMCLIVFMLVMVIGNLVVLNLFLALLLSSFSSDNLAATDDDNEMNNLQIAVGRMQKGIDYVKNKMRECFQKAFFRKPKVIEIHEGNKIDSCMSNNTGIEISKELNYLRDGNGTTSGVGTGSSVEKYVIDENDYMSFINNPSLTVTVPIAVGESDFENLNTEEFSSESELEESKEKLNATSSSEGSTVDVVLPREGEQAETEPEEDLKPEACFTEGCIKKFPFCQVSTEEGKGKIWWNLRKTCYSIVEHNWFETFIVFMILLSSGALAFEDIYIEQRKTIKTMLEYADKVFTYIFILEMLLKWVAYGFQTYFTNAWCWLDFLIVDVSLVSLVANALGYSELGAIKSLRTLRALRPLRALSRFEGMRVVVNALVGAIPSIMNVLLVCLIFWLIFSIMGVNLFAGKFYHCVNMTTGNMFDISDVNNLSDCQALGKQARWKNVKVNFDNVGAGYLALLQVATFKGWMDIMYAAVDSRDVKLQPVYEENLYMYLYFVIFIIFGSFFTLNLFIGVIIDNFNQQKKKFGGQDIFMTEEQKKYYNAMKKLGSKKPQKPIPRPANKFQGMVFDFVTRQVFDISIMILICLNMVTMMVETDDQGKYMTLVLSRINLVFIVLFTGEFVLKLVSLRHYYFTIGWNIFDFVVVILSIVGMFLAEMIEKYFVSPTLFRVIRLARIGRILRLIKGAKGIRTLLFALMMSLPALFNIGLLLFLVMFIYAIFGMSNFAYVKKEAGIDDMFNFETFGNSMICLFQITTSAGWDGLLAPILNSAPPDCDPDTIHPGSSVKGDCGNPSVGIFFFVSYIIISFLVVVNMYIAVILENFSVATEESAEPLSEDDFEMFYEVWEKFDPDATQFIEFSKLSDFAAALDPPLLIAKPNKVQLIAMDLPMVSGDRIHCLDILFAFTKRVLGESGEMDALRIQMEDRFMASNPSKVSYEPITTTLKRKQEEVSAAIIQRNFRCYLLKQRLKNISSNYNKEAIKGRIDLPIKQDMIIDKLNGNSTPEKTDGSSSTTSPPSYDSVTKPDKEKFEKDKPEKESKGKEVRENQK
NaV1.8, sequence (Q9Y5Y9 whole entry): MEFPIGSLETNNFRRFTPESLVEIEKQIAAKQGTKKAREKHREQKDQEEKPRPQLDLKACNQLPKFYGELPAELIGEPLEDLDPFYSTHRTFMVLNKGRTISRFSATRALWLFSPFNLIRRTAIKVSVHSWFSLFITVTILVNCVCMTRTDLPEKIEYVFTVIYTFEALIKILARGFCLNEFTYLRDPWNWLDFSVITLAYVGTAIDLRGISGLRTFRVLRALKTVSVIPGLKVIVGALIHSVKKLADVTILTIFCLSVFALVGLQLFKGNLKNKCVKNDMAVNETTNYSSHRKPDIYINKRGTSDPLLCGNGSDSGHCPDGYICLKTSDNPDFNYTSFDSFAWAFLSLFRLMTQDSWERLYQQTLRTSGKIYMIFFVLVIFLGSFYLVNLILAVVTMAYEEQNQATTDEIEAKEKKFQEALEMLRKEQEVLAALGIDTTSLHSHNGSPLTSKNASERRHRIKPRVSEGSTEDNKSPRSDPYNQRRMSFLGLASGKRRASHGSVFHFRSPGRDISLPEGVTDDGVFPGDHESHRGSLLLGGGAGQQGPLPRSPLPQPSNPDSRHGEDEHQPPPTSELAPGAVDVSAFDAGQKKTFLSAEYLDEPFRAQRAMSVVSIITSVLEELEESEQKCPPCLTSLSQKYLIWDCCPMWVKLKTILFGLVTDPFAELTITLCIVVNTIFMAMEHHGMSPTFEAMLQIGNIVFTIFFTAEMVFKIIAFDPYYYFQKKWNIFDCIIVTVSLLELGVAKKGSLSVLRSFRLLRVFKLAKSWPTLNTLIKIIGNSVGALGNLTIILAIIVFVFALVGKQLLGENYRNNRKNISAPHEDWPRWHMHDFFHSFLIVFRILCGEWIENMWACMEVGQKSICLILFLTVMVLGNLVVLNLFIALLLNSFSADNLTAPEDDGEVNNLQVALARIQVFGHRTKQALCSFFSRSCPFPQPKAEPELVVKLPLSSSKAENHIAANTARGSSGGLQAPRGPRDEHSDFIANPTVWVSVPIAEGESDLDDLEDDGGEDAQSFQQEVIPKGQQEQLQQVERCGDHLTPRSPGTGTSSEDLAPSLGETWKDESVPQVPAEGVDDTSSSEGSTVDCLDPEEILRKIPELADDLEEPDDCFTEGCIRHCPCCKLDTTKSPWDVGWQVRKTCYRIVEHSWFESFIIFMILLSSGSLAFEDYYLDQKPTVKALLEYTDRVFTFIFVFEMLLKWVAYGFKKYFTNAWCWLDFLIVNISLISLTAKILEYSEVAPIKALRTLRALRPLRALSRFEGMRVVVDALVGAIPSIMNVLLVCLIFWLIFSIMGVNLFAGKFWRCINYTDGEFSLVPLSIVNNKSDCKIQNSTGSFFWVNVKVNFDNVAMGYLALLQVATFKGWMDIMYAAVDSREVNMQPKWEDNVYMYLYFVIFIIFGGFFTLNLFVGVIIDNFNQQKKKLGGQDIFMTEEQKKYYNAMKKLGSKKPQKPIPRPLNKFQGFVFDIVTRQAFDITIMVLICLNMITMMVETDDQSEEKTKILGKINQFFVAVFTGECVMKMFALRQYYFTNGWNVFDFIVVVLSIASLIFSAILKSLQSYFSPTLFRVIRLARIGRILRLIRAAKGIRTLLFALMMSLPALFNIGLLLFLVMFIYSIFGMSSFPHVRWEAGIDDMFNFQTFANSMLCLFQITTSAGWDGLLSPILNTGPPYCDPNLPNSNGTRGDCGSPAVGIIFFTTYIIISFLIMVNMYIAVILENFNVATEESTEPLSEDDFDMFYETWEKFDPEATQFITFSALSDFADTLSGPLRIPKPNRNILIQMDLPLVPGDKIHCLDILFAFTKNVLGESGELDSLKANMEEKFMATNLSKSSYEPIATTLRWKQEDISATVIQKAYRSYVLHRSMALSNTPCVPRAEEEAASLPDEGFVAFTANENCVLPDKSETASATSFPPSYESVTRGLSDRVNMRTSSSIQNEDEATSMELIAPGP

For the compound `CC(C)N(Cc1ccccc1)C(=O)c1cnc(NC2CC3CCC2C3)nc1-c1ccccc1F` (stereo not drawn) [compound 29], the IC50 is less than 2 µM in test [1], 2 to 10 µM in test [2] and 2 to 10 µM in test [3].

Consider `O=C(NC1CC1c1ccccc1)c1cnc(N2CCOCC2)nc1-c1ccccc1F` (stereo not drawn) [compound 97], for which the IC50 in test [1], in test [2] and in test [3] was greater than 10 µM throughout.

Turning to `CC(C)N(Cc1ccc2c(c1)OCO2)C(=O)c1cnc(N2CCC3CCCCC3C2)nc1-c1ccccc1F` (stereo not drawn) [compound 120], the figures for the IC50 in test [1], in test [2] and in test [3] were less than 2 µM, greater than 10 µM and 2 to 10 µM, respectively.

Take `CC(C)N(Cc1ccccc1)C(=O)c1cnc(N2CCCCC2)nc1-c1ccccc1Cl` [compound 1]: the results for the concentration for half-maximal inhibition (IC50) in test [1], in test [2] and in test [3] were less than 2 µM, 2 to 10 µM and 2 to 10 µM, respectively.

`CC(C)N(C(=O)c1cnc(N2CCC3CCCCC3C2)nc1-c1ccccc1F)C1CCSC1` (stereo not drawn) [compound 141]: the results for the IC50 in test [1], in test [2] and in test [3] were 2 to 10 µM, greater than 10 µM and greater than 10 µM, respectively.

Turning to `CC(=O)Nc1ccc(-c2nc(N3CCOCC3)ncc2C(=O)N(Cc2ccccc2)C(C)C)cc1` [compound 168], the IC50 in test [1], in test [2] and in test [3] was greater than 10 µM in each case.

`Cc1nc(N2CCOCC2)nc(-c2ccccc2F)c1C(=O)N(Cc1ccccc1)C1CC1` [compound 145]: the results for the half-inhibitory concentration (IC50) in test [1], in test [2] and in test [3] were 2 to 10 µM, greater than 10 µM and 2 to 10 µM, respectively.

As to `CC(C)N(Cc1ccccc1)C(=O)c1cnc(N2CCOCC2)nc1-c1cc(F)cc(F)c1` [compound 139], the IC50 in test [1], in test [2] and in test [3] was 2 to 10 µM throughout.

As to `COc1cccc(N(C(=O)c2cnc(N3CCC4CCCCC4C3)nc2-c2ccccc2F)C2CCOCC2)c1` (stereo not drawn) [compound 68], the half-maximal inhibitory concentration (IC50) in test [1] was 2 to 10 µM; in test [2] it was greater than 10 µM; in test [3], greater than 10 µM.

For the compound `COc1cccc(CN(C(=O)c2cnc(NC(C)c3ccccc3)nc2-c2ccccc2F)C(C)C)c1` (stereo not drawn) [compound 188], the results for the IC50 in test [1], in test [2] and in test [3] were less than 2 µM, 2 to 10 µM and less than 2 µM, respectively.

In the case of `Cc1cccc(CN(C(=O)c2c(C)nc(N3CCOCC3)nc2-c2ccccc2F)C2CC2)c1` [compound 10], the concentration for half-maximal inhibition (IC50) was 2 to 10 µM in test [1], greater than 10 µM in test [2] and 2 to 10 µM in test [3].

For `CC(C)N(Cc1ccccc1)C(=O)c1cnc(Nc2cccc(O)c2)nc1-c1ccccc1F` [compound 132], the IC50 in test [1], in test [2] and in test [3] was greater than 10 µM in each case.

In the case of `O=C(c1cnc(N2CCCCC2)nc1-c1ccccc1F)N(Cc1ccccc1)C1CCCC1` [compound 136], the IC50 was 2 to 10 µM in test [1], greater than 10 µM in test [2] and 2 to 10 µM in test [3].

With `Cc1nc(N2CCOCC2)nc(-c2ccccc2F)c1C(=O)N(Cc1ccccc1)C1CCCC1` [compound 143], the IC50 in test [1], in test [2] and in test [3] was 2 to 10 µM each time.

Take `CC(C)N(Cc1ccc2c(c1)OCO2)C(=O)c1cnc(N2CCCCC2)nc1-c1ccccc1F` [compound 94]: the 50% inhibitory concentration (IC50) in test [1] is less than 2 µM; in test [2], 2 to 10 µM; in test [3], less than 2 µM.

For `CC(C)N(Cc1ccccc1)C(=O)c1cnc(N2CCSCC2)nc1-c1ccccc1F` [compound 98], the figures for the IC50 in test [1], in test [2] and in test [3] were less than 2 µM, 2 to 10 µM and 2 to 10 µM, respectively.

For the compound `O=C(c1cnc(N2CCOCC2)nc1-c1ccccc1F)N(Cc1cccc(-c2ccncc2)c1)C1CC1` [compound 60], the results for the IC50 in test [1], in test [2] and in test [3] were 2 to 10 µM, greater than 10 µM and greater than 10 µM, respectively.

Turning to `COc1cccc(N(C(=O)c2cnc(N3CCCCC3)nc2-c2ccccc2F)C2CC2)c1` [compound 158], the IC50 in test [1], in test [2] and in test [3] was greater than 10 µM each time.

In the case of `CC(C)N(Cc1ccc(C(C)(C)C)cc1)C(=O)c1cnc(N2CCOCC2)nc1-c1ccccc1F` [compound 24], the IC50 in test [1] is less than 2 µM; in test [2], 2 to 10 µM; in test [3], 2 to 10 µM.

Regarding `CCC(COC)N(Cc1ccccc1)C(=O)c1c(C)nc(N2CCOCC2)nc1-c1ccccc1F` (stereo not drawn) [compound 49], the values for the half-maximal inhibitory concentration (IC50) in test [1], in test [2] and in test [3] were greater than 10 µM, greater than 10 µM and 2 to 10 µM, respectively.

For `CC(C)N(Cc1ccccc1)C(=O)c1cnc(NCCc2cccc(C(F)(F)F)c2)nc1-c1ccccc1F` [compound 173], the half-inhibitory concentration (IC50) was less than 2 µM in test [1], greater than 10 µM in test [2] and 2 to 10 µM in test [3].

Consider `CC(C)N(Cc1ccccc1)C(=O)c1cnc(N2CCC3CCCCC3C2)nc1-c1ccccc1F` (stereo not drawn) [compound 92], for which the half-maximal inhibitory concentration (IC50) in test [1] is less than 2 µM; in test [2] it was greater than 10 µM; in test [3], greater than 10 µM.

Turning to `CC(C)N(C(=O)c1cnc(N2CCCCC2)nc1-c1ccccc1F)c1cccc(C(C)(C)C)c1` [compound 41], the IC50 in test [1] was greater than 10 µM; in test [2], greater than 10 µM; in test [3], 2 to 10 µM.

With `O=C(c1cnc(N2CCCCC2)nc1-c1ccccc1F)N(Cc1ccccc1)C1CC1` [compound 90], the half-inhibitory concentration (IC50) in test [1], in test [2] and in test [3] was 2 to 10 µM throughout.

For `CCNc1ncc(C(=O)N(Cc2ccccc2)C(C)C)c(-c2ccccc2F)n1` [compound 11], the IC50 in test [1], in test [2] and in test [3] was greater than 10 µM throughout.

With `COc1cccc(N(C(=O)c2cnc(N3CCOCC3)nc2-c2ccccc2F)C2CCOCC2)c1` [compound 197], the IC50 in test [1], in test [2] and in test [3] was greater than 10 µM each time.

For the compound `CC(C)N(Cc1ccc(C(C)(C)C)cc1)C(=O)c1cnc(N2CCCCC2)nc1-c1ccccc1Cl` [compound 119], the results for the 50% inhibitory concentration (IC50) in test [1], in test [2] and in test [3] were 2 to 10 µM, greater than 10 µM and greater than 10 µM, respectively.

Consider `O=C(c1cnc(N2CCOCC2)nc1-c1ccccc1F)N(Cc1ccccc1)C1CCCC1` [compound 159], for which the IC50 in test [1], in test [2] and in test [3] was 2 to 10 µM each time.

Consider `CN(C)CCN(Cc1ccccc1)C(=O)c1cnc(N2CCOCC2)nc1-c1ccccc1F` [compound 28], for which the concentration for half-maximal inhibition (IC50) in test [1], in test [2] and in test [3] was greater than 10 µM throughout.

With `C=CCN(CC=C)c1ncc(C(=O)N(Cc2ccccc2)C(C)C)c(-c2ccccc2F)n1` [compound 156], the IC50 in test [1] is less than 2 µM; in test [2], 2 to 10 µM; in test [3], 2 to 10 µM.

Consider `CC(C)N(C(=O)c1cnc(N2CCCCC2)nc1-c1ccccc1F)c1cccc2ccccc12` [compound 112], for which the IC50 was greater than 10 µM in test [1], greater than 10 µM in test [2] and 2 to 10 µM in test [3].

In the case of `O=C(c1cnc(N2CCSCC2)nc1-c1ccccc1F)N(Cc1ccc(C(F)(F)F)cc1)C1CC1` [compound 85], the IC50 is greater than 10 µM in test [1], 2 to 10 µM in test [2] and 2 to 10 µM in test [3].

For the compound `O=C(c1cnc(N2CCOCC2)nc1-c1ccccc1F)N1CC=C(c2ccc(F)cc2)CC1` [compound 71], the IC50 in test [1], in test [2] and in test [3] was greater than 10 µM each time.

Turning to `COc1cccc(N(C(=O)c2cnc(N3CCCCC3)nc2-c2ccccc2Cl)C2CCOCC2)c1` [compound 203], the IC50 in test [1], in test [2] and in test [3] was greater than 10 µM in each case.

Take `O=C(c1cnc(N2CCOCC2)nc1-c1ccccc1F)N1Cc2ccccc2C1` [compound 187]: the IC50 in test [1], in test [2] and in test [3] was greater than 10 µM each time.

With `CN1CCN(c2ncc(C(=O)N(Cc3ccccc3)C3CCCCC3)c(-c3ccccc3F)n2)CC1` [compound 147], the IC50 was 2 to 10 µM in test [1], greater than 10 µM in test [2] and greater than 10 µM in test [3].

Regarding `O=C(c1cnc(N2CCOCC2)nc1-c1ccccc1F)N(Cc1cccc2ccccc12)C1CC1` [compound 40], the figures for the concentration for half-maximal inhibition (IC50) in test [1], in test [2] and in test [3] were greater than 10 µM, greater than 10 µM and 2 to 10 µM, respectively.

As for `CC(C)N(C(=O)c1cnc(N2CCCCC2)nc1-c1ccccc1Cl)c1cccc(C#N)c1` [compound 101], the 50% inhibitory concentration (IC50) in test [1] is 2 to 10 µM; in test [2], greater than 10 µM; in test [3], 2 to 10 µM.

As to `CC(C)N(C(=O)c1cnc(N2CCCCC2)nc1-c1ccccc1F)c1ccccc1` [compound 93], the IC50 in test [1] was 2 to 10 µM; in test [2] it was greater than 10 µM; in test [3], 2 to 10 µM.

Take `CC(C)N(C(=O)c1cnc(N2CCSCC2)nc1-c1ccccc1F)c1ccccc1` [compound 201]: the values for the IC50 in test [1], in test [2] and in test [3] were 2 to 10 µM, greater than 10 µM and 2 to 10 µM, respectively.

Consider `CN1CCN(c2ncc(C(=O)N(Cc3ccccc3)C3CCC3)c(-c3ccccc3F)n2)CC1` [compound 180], for which the IC50 is 2 to 10 µM in test [1], greater than 10 µM in test [2] and 2 to 10 µM in test [3].

In the case of `CC(C)N(C(=O)c1cnc(N2CCOCC2)nc1-c1ccccc1F)c1cccc2ccccc12` [compound 76], the IC50 in test [1], in test [2] and in test [3] was greater than 10 µM throughout.

For `CCN(CCC#N)c1ncc(C(=O)N(Cc2ccccc2)C(C)C)c(-c2ccccc2F)n1` [compound 96], the IC50 in test [1] was less than 2 µM; in test [2], greater than 10 µM; in test [3], 2 to 10 µM.

For the origin of these results see US8546414B2, “Ion channel modulators and methods of use” (Vertex Pharmaceuticals Incorporated, priority 2004, dated 2013).
